Where two headings read alike, the source gives them in different places.
Tested on: Onchocerca gutturosa Adult Male Worms
Test: Onchocerciasis in vitro screening model, worm motility score
Assay type: cell-based
Details: read-out: O. gutturosa activity level (IC50 or MED)
[1] = Onchocerca gutturosa, Table 1 O. gutturosa, levels A/B/C, motility or MTT readout not specified
[2] = in vitro, Onchocerca gutturosa adult male worms, class A/B/C

IC50 [1] | SMILES | IC50 [2]
200 to 500 nM | Cc1cccnc1Nc1nc(-c2ccc(S(=O)(=O)C3CCN(C)CC3)cn2)ns1 [Compound 100, 3-(5-(1-methylpiperidin-4-ylsulfonyl)pyridin-2-yl)-N-(3-methylpyridin-2-yl)-1,2,4-thiadiazol-5-amine] | –
500 to 5000 nM | CC(C)c1cnc(Nc2nc(-c3ccccn3)n(C)n2)cc1C(F)(F)F [Compound 143, 5-isopropyl-N-(1-methyl-5-(pyridin-2-yl)-1H-1,2,4-triazol-3-yl)-4-(trifluoromethyl) pyridin-2-amine] | –
< 200 nM | Cc1cccnc1Nc1nc(-c2ccc(OC3CCN(C)CC3)cn2)no1 [Compound 21, 3-(5-(1-methyl-piperidin-4-yloxy)pyridin-2-yl)-N-(3-methylpyridin-2-yl)-1,2,4-oxadiazol-5-amine] | –
– | CC(C)c1ccnc(-c2nsc(Nc3ncccc3N(C)C(=O)C3CC3)n2)c1 [Compound 217, N-(2-(3-(4-isopropylpyridin-2-yl)-1,2,4-thiadiazol-5-ylamino)pyridin-3-yl)-N-methylcyclo-propanecarbox-amide] | 200 to 500 nM
– | CC(=O)N(C)c1cc(C(F)(F)F)cnc1Nc1nc(-c2ccc(OC3COC3)cn2)ns1 [Compound 329, N-methyl-N-(2-(3-(5-(oxetan-3-yloxy)pyridin-2-yl)-1,2,4-thiadiazol-5-ylamino)-5-(trifluoromethyl)pyridin-3-yl)acetamide] | 500 to 5000 nM
200 to 500 nM | Cc1cccnc1Nc1nc(-c2ccc(C(=O)N3CCOCC3)cn2)ns1 [Compound 58, (6-(5-(3-methyl-pyridin-2-ylamino)-1,2,4-thiadiazol-3-yl)pyridin-3-yl)(morpholino) methanone] | –
– | CC(=O)N(C)c1cc(C(F)(F)F)cnc1Nc1nc(-c2cc3c(cn2)N(C)C(=O)C3(C)C)ns1 [Compound 287, N-methyl-N-(5-(trifluoromethyl)-2-(3-(1,3,3-trimethyl-2-oxo-2,3-dihydro-1H-pyrrolo[2,3-c]pyridin-5-yl)-1,2,4-thiadiazol-5-ylamino)pyridin-3-yl)acetamide] | 500 to 5000 nM
500 to 5000 nM | Cc1cccnc1Nc1nc(-c2ccc(N3CCS(=O)(=O)CC3)cn2)ns1 [Compound 26, 4-(6-(5-((3-methylpyridin-2-yl)amino)-1,2,4-thiadiazol-3-yl)pyridin-3-yl)thio-morpholine 1,1-dioxide] | –
– | COc1cnc(Nc2nc(-c3cc(C(N)=O)c(OC(C)C)cn3)ns2)c(C(F)(F)F)c1 [Compound 253, 5-isopropoxy-2-(5-(5-methoxy-3-(trifluoro-methyl)pyridin-2-ylamino)-1,2,4-thiadiazol-3-yl)isonico-tinamide] | 500 to 5000 nM
500 to 5000 nM | CC(C)Oc1cnc(-c2nsc(Nc3ncccc3N(C)C)n2)cn1 [Compound 126, N2-(3-(5-iso-propoxypyrazin-2-yl)-1,2,4-thiadiazol-5-yl)-N3,N3-dimethylpyridine-2,3-diamine] | –
500 to 5000 nM | Cc1cccnc1Nc1nc(-c2ccc(C(=O)NCC(F)(F)F)cn2)ns1 [Compound 60, 6-(5-(3-methyl-pyridin-2-ylamino)-1,2,4-thiadiazol-3-yl)-N-(2,2,2-trifluoroethyl) nicotinamide] | –

SMILES | IC50 [1] | IC50 [2]
Cc1cccnc1Nc1nc(-c2cnc(OC(C)C)cn2)ns1 [Compound 124, 3-(5-isopropoxy-pyrazin-2-yl)-N-(3-methyl-pyridin-2-yl)-1,2,4-thiadiazol-5-amine] | 200 to 500 nM | –
COc1cccnc1Nc1nc(-c2ccc(OC3CC(F)(F)C3)cn2)ns1 [Compound 137, 3-(5-(3,3-difluorocyclo-butoxy)pyridin-2-yl)-N-(3-methoxypyridin-2-yl)-1,2,4-thiadiazol-5-amine] | 500 to 5000 nM | –
CC(=O)N(C)c1cccnc1Nc1nc(-c2cc(C(F)(F)F)c(OC(C)C)cn2)ns1 [Compound 187, N-(2-(3-(5-isopropoxy-4-(trifluoro-methyl)pyridin-2-yl)-1,2,4-thiadiazol-5-ylamino)pyridin-3-yl)-N-methylacetamide] | 500 to 5000 nM | –
Cc1nccnc1Nc1nc(-c2ccc(OC(C)C)cn2)ns1 [Compound 135, 3-(5-isoprop-oxypyridin-2-yl)-N-(3-methyl-pyrazin-2-yl)-1,2,4-thia-diazol-5-amine] | < 200 nM | –

Reference: US11505548B2, “Heterocyclic compounds and their use for treatment of helminthic infections and diseases” (Celgene Corporation, priority 2019, dated 2022)
